Results: ChEMBL document CHEMBL1201862, “PubChem BioAssay data set” (2004)
Activity calls are given as the source filed them.

Tests used:
[1] = target: T1, Nuclear receptor subfamily 0 group B member 1 (Homo sapiens, UniProt P51843); format: functional, cell-based;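 note: HEK293T cells transfected with SF-1 and DAX-1 plus StAR promoter luciferase reporter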
T1 sequence (P51843 whole entry): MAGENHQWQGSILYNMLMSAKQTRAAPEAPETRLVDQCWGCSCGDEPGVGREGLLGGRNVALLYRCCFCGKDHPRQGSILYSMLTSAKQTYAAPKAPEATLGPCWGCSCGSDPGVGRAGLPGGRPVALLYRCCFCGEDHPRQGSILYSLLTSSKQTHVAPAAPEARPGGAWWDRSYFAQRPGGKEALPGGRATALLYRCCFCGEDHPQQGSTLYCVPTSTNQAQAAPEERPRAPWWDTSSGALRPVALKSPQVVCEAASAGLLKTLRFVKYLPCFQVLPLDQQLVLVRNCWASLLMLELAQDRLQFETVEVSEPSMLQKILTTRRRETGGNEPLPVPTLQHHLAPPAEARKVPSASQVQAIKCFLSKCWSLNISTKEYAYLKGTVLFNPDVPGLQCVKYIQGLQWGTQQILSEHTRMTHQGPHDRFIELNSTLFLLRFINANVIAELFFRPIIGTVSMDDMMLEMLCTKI

cells = format: functional, cell-based
Mu-type opioid receptor = Mu-type opioid receptor (Homo sapiens, UniProt P35372); format: functional, cell-based;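 note: U2OS cells with beta-arrestin recruitment to OPRM1 by beta-gal complementation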
Mu-type opioid receptor, sequence (P35372 whole entry): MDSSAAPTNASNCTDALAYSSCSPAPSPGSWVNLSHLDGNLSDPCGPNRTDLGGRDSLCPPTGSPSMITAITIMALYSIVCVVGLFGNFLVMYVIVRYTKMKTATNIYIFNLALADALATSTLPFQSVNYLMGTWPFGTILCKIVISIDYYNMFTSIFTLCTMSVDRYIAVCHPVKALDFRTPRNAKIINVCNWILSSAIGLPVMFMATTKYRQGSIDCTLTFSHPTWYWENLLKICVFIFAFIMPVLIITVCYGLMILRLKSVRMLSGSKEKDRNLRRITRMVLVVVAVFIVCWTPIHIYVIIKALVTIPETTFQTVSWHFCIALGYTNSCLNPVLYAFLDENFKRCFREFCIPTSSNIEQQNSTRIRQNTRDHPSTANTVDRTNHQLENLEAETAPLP

[2] = target: 5-hydroxytryptamine receptor 2A (Mus musculus, UniProt P35363); format: functional, cell-based;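 note: CHO-K1 cells with tagged receptor and beta-arrestin; agonist potency measured as compound-induced activation of the receptor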
5-hydroxytryptamine receptor 2A, sequence (P35363 whole entry): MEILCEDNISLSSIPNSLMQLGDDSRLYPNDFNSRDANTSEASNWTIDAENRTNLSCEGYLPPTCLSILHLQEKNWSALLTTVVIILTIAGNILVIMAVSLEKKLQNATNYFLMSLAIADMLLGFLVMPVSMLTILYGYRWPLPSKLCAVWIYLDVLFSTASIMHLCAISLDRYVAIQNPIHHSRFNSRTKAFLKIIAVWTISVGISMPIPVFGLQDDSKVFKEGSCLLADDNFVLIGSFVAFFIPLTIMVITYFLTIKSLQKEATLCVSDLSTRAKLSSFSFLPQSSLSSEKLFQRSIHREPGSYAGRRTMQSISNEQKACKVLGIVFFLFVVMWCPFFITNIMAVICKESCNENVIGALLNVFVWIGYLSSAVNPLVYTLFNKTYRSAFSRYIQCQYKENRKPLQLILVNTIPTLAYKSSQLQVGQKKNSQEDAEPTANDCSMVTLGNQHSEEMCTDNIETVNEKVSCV

[3] = target: T2, Long-chain-fatty-acid--AMP ligase FadD28 (Mycobacterium tuberculosis, UniProt P9WQ59); assay: Fluorescence polarization aasay to screen for inhibitors that compete for the binding of FadD28 to a bisubstrate Measured in Biochemical System Using Plate Reader - 2147-01_Inhibitor_Dose_CherryPick_Activity.; format: functional, Mycobacterium tuberculosis H37Rv
T2 sequence (P9WQ59 whole entry): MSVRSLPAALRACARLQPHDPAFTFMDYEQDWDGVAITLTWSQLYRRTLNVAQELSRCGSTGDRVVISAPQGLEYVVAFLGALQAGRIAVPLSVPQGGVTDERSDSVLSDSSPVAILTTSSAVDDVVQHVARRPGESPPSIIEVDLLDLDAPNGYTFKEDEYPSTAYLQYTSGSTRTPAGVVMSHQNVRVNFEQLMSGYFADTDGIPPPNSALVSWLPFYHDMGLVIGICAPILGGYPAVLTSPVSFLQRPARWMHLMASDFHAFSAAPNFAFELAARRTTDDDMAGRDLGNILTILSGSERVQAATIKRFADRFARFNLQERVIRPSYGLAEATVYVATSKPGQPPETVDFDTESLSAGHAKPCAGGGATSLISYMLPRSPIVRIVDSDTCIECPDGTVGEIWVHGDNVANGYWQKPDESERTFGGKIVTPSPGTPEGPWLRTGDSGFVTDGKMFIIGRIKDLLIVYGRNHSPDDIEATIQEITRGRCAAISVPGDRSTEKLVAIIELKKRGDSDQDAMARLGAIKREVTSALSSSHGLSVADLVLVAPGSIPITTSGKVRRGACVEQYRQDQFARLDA

[4] = target: T3, Small ubiquitin-related modifier 1 (Homo sapiens, UniProt P63165); assay: SUMO1 protein-protein binding blockers, potency – biochemical, FRET, dose response (AID 624383); format: functional; details: read-out: IC50_Mean
T3 sequence (P63165 whole entry): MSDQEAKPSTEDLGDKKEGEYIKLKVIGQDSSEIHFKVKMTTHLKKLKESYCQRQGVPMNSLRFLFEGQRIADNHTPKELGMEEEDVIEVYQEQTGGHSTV

[5] = target: Induced myeloid leukemia cell differentiation protein Mcl-1 (Homo sapiens, UniProt Q07820); format: functional
Induced myeloid leukemia cell differentiation protein Mcl-1, sequence (Q07820 whole entry): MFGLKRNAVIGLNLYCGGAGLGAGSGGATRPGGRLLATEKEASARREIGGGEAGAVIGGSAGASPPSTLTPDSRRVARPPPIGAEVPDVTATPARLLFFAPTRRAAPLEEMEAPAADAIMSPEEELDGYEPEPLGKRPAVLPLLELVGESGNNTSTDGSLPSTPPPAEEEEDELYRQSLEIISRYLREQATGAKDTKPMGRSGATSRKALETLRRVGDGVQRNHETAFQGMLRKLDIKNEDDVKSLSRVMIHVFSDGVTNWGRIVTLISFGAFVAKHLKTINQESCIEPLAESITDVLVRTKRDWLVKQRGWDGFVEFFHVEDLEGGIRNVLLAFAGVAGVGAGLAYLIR

[6] = target: T4, Zinc finger protein mex-5 (Caenorhabditis elegans, UniProt Q9XUB2); assay: potency of MEX-5 RNA-binding blockers – biochemical, C. elegans, fluorescence polarization, dose response (AID 1960)
T4 sequence (Q9XUB2 whole entry): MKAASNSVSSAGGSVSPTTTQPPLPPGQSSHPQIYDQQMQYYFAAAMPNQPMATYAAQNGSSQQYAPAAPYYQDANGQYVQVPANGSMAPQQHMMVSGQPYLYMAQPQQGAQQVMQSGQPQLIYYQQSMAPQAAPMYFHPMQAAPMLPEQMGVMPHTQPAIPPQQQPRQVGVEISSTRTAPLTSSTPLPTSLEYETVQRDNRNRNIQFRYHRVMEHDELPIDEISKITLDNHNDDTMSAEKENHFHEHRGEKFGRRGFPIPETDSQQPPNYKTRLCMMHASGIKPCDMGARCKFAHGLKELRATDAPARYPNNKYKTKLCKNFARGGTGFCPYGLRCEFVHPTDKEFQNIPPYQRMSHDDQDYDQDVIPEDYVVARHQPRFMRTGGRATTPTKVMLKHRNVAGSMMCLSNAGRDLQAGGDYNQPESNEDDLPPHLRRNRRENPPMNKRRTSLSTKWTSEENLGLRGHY

Large T antigen = Large T antigen (Simian virus 40, UniProt P03070); format: functional, Betapolyomavirus macacae;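 note: Confirmatory-stage PubChem screen for compounds that inhibit SV40 T antigen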
Large T antigen, sequence (P03070 whole entry, the tested form may be a part): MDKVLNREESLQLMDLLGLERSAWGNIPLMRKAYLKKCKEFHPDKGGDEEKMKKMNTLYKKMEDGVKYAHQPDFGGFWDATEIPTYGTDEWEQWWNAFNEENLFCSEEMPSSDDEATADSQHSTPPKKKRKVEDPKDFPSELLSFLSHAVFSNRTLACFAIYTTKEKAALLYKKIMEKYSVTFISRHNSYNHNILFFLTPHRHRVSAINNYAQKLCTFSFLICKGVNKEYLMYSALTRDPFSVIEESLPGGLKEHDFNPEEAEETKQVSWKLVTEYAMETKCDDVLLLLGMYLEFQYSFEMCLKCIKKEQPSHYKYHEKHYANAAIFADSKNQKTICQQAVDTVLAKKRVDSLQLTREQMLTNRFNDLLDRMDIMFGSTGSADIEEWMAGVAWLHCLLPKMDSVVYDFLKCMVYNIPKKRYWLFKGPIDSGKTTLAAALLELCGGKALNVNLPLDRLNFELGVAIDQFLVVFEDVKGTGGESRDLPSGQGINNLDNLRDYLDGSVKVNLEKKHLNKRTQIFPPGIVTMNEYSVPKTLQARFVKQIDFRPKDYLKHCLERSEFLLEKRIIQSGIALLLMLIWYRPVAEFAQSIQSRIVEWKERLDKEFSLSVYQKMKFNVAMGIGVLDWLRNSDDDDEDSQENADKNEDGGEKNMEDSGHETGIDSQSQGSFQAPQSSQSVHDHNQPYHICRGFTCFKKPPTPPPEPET

[7] = target: T5, RNA-binding protein pos-1 (Caenorhabditis elegans, UniProt G5EF15); assay: disruptors of C. elegans POS-1 RNA interaction – biochemical, fluorescence polarization, dose response (AID 1964);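 note: purified POS-1 fused to maltose binding protein made in E. coli; potency of compounds blocking POS-1 binding to fluorescent RNA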
T5 sequence (G5EF15 whole entry): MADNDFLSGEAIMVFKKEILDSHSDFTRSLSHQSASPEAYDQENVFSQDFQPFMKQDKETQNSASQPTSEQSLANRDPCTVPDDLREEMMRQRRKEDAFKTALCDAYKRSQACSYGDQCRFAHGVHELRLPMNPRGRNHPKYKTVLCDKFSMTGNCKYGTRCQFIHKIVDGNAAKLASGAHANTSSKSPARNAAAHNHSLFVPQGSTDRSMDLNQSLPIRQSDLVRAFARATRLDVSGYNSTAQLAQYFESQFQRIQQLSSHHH

[8] = target: T6, Histone-lysine N-methyltransferase NSD2 (Homo sapiens, UniProt O96028); format: biochemical
T6 sequence (O96028 whole entry): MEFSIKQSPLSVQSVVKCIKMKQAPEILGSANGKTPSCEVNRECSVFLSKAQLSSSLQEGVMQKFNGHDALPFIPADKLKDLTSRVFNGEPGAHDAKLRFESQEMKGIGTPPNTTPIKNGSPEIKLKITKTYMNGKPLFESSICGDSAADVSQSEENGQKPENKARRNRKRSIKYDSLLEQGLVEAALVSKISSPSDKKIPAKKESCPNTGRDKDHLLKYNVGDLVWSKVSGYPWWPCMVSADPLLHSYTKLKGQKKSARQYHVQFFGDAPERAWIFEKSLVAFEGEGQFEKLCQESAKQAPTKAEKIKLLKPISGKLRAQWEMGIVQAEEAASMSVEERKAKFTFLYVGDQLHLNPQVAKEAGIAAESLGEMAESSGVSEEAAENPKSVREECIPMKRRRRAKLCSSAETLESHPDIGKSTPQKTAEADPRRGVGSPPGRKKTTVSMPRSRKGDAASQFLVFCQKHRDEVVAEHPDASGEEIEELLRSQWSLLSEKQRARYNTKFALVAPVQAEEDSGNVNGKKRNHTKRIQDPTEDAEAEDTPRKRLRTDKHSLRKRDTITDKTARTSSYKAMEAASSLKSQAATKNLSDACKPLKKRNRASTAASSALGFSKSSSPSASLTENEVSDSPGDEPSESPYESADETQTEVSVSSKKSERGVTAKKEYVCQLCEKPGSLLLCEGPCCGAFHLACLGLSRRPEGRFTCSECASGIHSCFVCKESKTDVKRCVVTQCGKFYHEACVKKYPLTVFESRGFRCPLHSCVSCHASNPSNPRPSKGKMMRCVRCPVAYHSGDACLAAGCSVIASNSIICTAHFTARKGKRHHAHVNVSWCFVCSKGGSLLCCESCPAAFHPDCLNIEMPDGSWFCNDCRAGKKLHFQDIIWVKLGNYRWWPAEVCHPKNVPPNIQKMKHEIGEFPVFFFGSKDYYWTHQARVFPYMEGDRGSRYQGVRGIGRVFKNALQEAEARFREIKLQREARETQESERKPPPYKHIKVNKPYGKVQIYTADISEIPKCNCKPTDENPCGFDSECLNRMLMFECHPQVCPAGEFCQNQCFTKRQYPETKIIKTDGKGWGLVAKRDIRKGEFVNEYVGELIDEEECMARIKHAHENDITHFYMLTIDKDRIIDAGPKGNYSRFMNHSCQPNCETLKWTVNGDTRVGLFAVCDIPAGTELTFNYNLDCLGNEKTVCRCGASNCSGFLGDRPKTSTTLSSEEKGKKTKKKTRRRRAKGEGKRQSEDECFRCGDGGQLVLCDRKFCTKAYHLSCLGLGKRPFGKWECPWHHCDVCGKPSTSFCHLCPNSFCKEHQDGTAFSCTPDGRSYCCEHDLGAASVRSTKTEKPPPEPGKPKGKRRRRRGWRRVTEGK

[9] = target: T3, Small ubiquitin-related modifier 1; assay: SUMO1 protein interaction blockers, potency – biochemical, fluorescence polarization, uHTS hits, dose response (AID 624382); format: functional; details: read-out: IC50_Mean
[10] = target: DNA (cytosine-5)-methyltransferase 1 (Homo sapiens, UniProt P26358); assay: inhibition of DNA methylation by DNMT1 – biochemical, fluorescent molecular beacon, confirmation (AID 602386); format: functional
DNA (cytosine-5)-methyltransferase 1, sequence (P26358 whole entry): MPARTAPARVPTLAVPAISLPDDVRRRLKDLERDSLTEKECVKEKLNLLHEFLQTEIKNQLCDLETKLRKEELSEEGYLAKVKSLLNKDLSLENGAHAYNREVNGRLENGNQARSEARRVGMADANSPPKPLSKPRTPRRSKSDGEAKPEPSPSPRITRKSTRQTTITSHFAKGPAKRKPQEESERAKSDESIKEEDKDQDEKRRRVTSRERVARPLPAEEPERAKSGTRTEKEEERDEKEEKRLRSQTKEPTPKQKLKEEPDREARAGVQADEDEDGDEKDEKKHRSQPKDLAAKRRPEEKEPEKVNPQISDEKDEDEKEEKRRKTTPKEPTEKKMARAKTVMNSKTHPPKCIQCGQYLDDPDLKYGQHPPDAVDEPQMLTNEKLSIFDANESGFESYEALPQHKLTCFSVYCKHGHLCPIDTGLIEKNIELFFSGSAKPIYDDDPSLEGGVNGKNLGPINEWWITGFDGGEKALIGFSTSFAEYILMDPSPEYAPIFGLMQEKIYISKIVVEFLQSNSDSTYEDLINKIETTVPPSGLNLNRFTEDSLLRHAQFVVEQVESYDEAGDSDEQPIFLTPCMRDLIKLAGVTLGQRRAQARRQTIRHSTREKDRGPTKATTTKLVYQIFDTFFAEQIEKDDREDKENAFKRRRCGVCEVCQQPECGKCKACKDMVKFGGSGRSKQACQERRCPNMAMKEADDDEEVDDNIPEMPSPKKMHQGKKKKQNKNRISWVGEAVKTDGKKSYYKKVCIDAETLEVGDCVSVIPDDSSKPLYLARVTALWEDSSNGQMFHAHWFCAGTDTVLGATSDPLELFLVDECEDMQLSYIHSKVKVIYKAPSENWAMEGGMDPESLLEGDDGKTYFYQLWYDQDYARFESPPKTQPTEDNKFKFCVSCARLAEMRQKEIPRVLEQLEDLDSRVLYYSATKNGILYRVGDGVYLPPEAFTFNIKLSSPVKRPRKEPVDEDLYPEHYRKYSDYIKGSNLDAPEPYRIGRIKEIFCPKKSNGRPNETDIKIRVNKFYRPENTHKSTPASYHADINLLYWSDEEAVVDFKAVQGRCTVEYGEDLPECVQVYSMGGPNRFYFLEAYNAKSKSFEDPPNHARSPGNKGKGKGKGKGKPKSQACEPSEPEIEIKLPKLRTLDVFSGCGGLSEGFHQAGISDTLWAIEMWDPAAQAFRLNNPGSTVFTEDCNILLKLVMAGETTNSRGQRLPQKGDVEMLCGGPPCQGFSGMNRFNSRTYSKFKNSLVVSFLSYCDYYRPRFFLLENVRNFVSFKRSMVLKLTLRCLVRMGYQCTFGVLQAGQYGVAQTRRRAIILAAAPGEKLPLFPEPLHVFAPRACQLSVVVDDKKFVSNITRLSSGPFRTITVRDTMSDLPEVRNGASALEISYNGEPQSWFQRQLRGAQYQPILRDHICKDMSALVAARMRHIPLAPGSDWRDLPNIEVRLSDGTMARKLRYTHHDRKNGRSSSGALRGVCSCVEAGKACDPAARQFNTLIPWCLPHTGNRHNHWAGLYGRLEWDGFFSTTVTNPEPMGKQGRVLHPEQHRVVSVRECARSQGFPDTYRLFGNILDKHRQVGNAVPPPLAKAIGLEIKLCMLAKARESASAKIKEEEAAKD

[11] = target: Luciferin 4-monooxygenase (Photinus pyralis, UniProt P08659); assay: Counter Screen for Luciferase-based Assay Positives. [Related pubchem assays: 620, 618, 411 ]
Luciferin 4-monooxygenase, sequence (P08659 whole entry): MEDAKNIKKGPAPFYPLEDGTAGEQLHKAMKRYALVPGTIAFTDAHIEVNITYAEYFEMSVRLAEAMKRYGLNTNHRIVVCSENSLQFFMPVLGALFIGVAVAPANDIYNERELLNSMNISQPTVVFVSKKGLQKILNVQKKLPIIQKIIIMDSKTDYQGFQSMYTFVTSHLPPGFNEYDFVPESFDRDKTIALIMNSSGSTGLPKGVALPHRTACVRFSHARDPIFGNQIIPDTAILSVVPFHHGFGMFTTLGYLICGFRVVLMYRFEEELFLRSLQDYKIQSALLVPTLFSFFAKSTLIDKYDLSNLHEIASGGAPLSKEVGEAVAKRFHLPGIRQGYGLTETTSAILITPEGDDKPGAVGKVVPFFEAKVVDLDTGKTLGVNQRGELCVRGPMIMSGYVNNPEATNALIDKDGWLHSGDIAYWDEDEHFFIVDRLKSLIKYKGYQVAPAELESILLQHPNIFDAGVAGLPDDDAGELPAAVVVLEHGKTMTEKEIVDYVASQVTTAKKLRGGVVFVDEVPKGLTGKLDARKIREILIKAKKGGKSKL

HT-1080 = assay: HT1080 cell viability loss – fluorescence readout (AID 620); format: functional, cell-based; details: Homo sapiens
[12] = Luminescence Cell-Based Dose Response HTS to Identify Inhibitors of 5'UTR Stem-Loop Driven Prion Protein mRNA Translation in H4 Neuroglioblastoma Cells. [Related pubchem assays: 1827 (Project Summary), 1813 (Primary HTS)]; format: functional
Protein skinhead-1 = target: T7, Protein skinhead-1 (Caenorhabditis elegans, UniProt P34707); format: functional
T7 sequence (P34707 whole entry): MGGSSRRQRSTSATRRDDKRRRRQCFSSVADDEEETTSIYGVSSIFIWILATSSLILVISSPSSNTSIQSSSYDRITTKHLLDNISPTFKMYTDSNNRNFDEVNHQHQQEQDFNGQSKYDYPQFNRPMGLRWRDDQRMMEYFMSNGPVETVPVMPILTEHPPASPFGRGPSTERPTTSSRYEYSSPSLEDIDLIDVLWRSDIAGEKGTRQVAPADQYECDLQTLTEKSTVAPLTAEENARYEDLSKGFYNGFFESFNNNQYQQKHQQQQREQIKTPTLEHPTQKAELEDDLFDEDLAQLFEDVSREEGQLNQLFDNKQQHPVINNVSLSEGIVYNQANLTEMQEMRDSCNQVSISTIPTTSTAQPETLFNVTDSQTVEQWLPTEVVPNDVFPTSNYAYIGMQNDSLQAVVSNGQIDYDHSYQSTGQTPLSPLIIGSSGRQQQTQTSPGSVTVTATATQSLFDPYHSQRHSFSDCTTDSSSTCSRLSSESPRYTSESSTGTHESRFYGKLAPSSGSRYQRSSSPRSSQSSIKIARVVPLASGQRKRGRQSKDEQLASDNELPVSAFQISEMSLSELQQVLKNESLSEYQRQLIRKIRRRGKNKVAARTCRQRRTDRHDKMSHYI

[13] = blockers of HIV-1 envelope-mediated cell-cell fusion – cherry-pick, dose response (AID 652057); format: functional, cell-based
[14] = viability loss in CEM21 cells – cell-based, CellTiter-Glo luminescence, cherry-picked, cytotoxicity control for viral fusion inhibitor project, dose response (AID 652042); format: functional;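 note: potency for signal decrease meaning cytotoxicity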
[15] = HIV-1 AD8 envelope cell-cell fusion blockers – cherry-pick, dose response (AID 652062); format: functional, cell-based;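 note: luciferase signal from cell-cell fusion driven by HIV-1 clade B AD8 Env; potency is for inhibitors of fusion seen as a drop in luminescence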

Compound | IC50 [1] | IC50 (cells) | EC50 (Mu-type opioid receptor) | EC50 [2] | further results
CCC1CS/C(=N\c2ccc(C)cc2)N1C(=O)CN1C(=O)NC2(CCCC2)C1=O (stereo not given) | > 67.6 µM (inactive) | > 67.6 µM (inactive) |  |  | 
O=C(COC(=O)c1ccc(O)cc1O)c1ccc(Cl)cc1 | > 67.5 µM (inactive) | > 67.5 µM (inactive) |  |  | 
c1cnc(N2CCN(Cc3ccc4c(c3)OCO4)CC2)nc1 |  |  | 92.5 µM (inactive) | 0.00986 µM (active) | 
CCc1cccc2c(C(=O)CN3C(=O)NC4(CCc5ccccc54)C3=O)c[nH]c12 (stereo not given) | > 67.5 µM (inactive) | > 67.5 µM (inactive) |  |  | AC50 [3]: 29.2 µM (active)
CCOC(=O)N1CCN(Cc2ccc(OCC(O)CN3CCCCC3)cc2)CC1 (stereo not given) |  |  | 92.5 µM (inactive) | 2.22 µM (active) | 
O=C(O)c1ccc(-n2cccc2/C=C2/NC(=O)N(c3ccccc3)C2=O)cc1 |  |  |  |  | IC50 [4]: 9.62 µM (active); IC50 [5]: 3.51 µM (active); EC50 [6]: 71.1 µM (active); IC50 (Large T antigen): > 100 µM (active); EC50 [7]: > 300 µM (not active); AC50 [8]: 5.87 µM (active); IC50 [9]: > 66.6 µM (inactive); IC50 [10]: 3.83 µM (active)
CC[C@@H](C)[C@H](C(CC(=O)N1CCCC1[C@@H](OC)[C@H](C)C(=O)N[C@H](Cc1ccccc1)c1nccs1)OC)N(C)C(=O)[C@H](NC(=O)[C@@H](C(C)C)N(C)C)C(C)C (stereo not given in full) | > 67.5 µM (inactive) | > 67.5 µM (inactive) |  |  | 
O=C(/C=C\Nc1ccccn1)c1ccccc1 | > 67.5 µM (inactive) | > 67.5 µM (inactive) |  |  | EC50 [11]: < 0.2 µM (active); EC50 (HT-1080): > 50 µM (not active); EC50 [12]: 10.7 µM (inconclusive); IC50 (Protein skinhead-1): 15.1 µM (active)
CSCCC(=O)N1CC[C@@H](N2CCN(c3ccccc3F)CC2)[C@H](O)C1 |  |  | 92.5 µM (inactive) | 41.7 µM (inactive) | 
COc1cccc(CNc2nc(NCc3ccccc3OC)nc3ccsc23)c1 |  |  |  |  | AC50 [13]: 31.9 µM (active); AC50 [14]: 68.5 µM (active); AC50 [15]: 16.8 µM (active); IC50 (Protein skinhead-1): > 100 µM (inactive)
CC(=O)NCC1(c2ccccc2)CCN(CC2COc3ccccc3O2)CC1 (stereo not given) [ACOXATRINE] |  |  | 92.6 µM (inactive) | 76.2 µM (inactive) | 
